{
  "source": "patent US8557843B2",
  "about": "“Quinoline derivatives and their use as tyrosine kinase inhibitors” (ClanoTech AB, priority 2007, dated 2013)",
  "key": {"[1]": {"target": "T1, alpha-5-beta-1 (Homo sapiens, UniProt P05556+P08648)", "T1 construct": "obtained from academic sources as recombinant, soluble proteins (the extracellular domain)", "T1 sequence (P08648 42-995 limits assumed)": "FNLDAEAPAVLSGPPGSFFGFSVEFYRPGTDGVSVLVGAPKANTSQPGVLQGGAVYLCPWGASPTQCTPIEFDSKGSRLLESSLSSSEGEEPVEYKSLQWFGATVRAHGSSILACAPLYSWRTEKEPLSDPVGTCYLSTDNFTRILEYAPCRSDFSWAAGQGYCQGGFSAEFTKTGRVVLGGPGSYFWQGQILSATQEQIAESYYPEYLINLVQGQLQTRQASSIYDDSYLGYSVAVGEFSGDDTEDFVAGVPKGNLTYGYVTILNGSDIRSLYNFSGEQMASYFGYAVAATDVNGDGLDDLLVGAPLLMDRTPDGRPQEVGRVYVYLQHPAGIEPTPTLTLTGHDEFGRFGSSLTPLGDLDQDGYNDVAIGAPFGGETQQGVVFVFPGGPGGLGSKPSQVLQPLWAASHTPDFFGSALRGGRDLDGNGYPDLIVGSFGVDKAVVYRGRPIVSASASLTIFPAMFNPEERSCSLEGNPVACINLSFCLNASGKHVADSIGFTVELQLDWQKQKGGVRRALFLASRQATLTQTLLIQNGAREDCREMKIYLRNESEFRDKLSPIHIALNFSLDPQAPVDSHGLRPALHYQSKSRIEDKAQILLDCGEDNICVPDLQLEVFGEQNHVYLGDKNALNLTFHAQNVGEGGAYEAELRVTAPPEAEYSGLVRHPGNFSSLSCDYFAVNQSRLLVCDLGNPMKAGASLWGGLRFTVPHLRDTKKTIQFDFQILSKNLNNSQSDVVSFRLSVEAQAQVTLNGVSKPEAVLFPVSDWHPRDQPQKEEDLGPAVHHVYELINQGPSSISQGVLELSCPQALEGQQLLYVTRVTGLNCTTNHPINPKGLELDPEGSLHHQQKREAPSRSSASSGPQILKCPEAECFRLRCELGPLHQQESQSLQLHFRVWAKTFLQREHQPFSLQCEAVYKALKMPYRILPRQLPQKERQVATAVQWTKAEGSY", "T1 sequence (P05556 21-728 limits assumed)": "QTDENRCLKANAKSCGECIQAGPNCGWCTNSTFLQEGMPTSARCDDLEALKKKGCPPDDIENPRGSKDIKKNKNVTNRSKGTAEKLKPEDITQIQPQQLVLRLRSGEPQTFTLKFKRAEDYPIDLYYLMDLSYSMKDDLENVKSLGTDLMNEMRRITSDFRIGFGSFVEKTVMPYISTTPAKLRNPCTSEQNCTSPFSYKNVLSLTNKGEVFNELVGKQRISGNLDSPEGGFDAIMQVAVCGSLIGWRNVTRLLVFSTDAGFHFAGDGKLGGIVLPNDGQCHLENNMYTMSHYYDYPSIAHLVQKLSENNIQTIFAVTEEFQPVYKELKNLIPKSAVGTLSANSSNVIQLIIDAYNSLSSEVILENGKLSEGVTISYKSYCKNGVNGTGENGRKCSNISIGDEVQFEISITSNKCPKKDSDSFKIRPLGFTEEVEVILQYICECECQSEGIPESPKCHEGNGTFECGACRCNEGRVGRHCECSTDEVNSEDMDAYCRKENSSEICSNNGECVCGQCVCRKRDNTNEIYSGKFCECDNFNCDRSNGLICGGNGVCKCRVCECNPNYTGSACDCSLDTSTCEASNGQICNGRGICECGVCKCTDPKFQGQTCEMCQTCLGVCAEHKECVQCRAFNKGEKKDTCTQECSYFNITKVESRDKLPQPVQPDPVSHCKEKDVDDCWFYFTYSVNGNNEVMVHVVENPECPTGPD", "experiment": "Integrin assay: SHG, inhibition of RGD-peptide-induced conformational change", "type": "biochemical", "details": "compound pre-incubated at 100 μM for 20 minutes, then RGD peptide 400 μM; labeled alpha-5-beta-1", "experimental": "(§1) This assay was conducted by Biodesy (Burlingame, Calif., USA). Purified integrins were obtained from academic and commercial sources. Alpha-5-beta-1 and alpha-v-beta-3 were obtained from academic sources as recombinant, soluble proteins (the extracellular domain).\n(§2) A standard labeling protocol developed for integrins was applied to each of the three proteins. All proteins were successfully labeled with an average label:protein ratio of ˜4:1. The two soluble, labeled proteins (alpha5beta1 and alphavbeta3) produced background SHG (second-harmonic generation) signals. They also produced conformational change signals upon exposure to GRGDSP (RGD-peptide, a fibronectin-derived peptide Gly-Arg-Gly-Asp-Ser-Pro). The peptide was added at 400 μM and signal changes were immediate (FIG. 1).\n(§3) Next, Example 4 was pre-incubated at 100 μM with the labeled proteins for 20 minutes. RGD peptide was then added (400 μM) to stimulate the protein and to test each compound for inhibition."}, "[2]": {"target": "T2, alpha-v-beta-3 (Homo sapiens, UniProt P05106+P06756)", "T2 construct": "obtained from academic sources as recombinant, soluble proteins (the extracellular domain)", "T2 sequence (P06756 31-992 limits assumed)": "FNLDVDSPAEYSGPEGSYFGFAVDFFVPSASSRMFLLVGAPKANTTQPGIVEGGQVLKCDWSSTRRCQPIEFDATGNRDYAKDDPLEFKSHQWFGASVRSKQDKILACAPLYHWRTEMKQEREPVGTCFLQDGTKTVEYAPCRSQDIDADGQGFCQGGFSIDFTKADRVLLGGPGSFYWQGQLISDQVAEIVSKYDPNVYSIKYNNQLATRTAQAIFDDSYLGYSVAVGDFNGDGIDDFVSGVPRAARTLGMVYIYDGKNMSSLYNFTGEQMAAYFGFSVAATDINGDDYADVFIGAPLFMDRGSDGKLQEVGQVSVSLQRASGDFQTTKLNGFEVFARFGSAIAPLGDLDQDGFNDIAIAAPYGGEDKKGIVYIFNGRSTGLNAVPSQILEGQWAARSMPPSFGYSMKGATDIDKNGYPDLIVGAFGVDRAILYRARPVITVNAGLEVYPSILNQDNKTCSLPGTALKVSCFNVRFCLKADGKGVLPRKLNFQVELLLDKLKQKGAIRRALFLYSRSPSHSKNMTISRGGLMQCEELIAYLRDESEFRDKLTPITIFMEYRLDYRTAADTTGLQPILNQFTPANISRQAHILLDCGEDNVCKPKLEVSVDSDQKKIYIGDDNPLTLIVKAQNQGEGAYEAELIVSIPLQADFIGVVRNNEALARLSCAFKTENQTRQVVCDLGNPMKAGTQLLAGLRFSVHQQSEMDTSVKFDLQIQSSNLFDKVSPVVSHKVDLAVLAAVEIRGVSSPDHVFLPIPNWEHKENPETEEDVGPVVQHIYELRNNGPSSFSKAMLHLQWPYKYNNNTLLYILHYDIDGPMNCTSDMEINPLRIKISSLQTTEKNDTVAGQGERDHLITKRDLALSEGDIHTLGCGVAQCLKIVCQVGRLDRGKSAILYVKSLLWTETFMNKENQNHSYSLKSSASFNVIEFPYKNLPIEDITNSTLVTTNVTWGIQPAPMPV", "T2 sequence (P05106 27-718 limits assumed)": "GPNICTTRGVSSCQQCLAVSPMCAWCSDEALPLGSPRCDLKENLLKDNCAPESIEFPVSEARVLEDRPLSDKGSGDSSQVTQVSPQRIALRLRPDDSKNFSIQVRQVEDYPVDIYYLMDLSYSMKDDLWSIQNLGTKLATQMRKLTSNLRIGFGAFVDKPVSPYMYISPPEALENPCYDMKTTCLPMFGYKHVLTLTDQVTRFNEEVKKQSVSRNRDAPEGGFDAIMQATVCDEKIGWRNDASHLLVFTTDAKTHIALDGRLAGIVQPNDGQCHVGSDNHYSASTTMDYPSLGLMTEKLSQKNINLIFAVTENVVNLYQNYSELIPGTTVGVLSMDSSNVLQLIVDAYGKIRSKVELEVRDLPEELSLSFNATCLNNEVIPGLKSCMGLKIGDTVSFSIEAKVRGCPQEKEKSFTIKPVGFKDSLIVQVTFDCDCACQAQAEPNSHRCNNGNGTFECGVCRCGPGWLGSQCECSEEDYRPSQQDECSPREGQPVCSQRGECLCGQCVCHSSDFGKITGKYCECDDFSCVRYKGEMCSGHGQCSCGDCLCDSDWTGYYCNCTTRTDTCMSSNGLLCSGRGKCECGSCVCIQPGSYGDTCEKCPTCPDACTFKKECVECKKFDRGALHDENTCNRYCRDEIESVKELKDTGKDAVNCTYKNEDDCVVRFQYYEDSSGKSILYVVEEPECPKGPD", "experiment": "Integrin assay: SHG, inhibition of RGD-peptide-induced conformational change", "type": "biochemical", "details": "compound pre-incubated at 100 μM for 20 minutes, then RGD peptide 400 μM; labeled alpha-v-beta-3", "experimental": "as §1, §2, §3"}, "[3]": {"system": "CNV (chorodial neovascularization)", "experiment": "Laser induced mouse eye model (CNV)", "type": "in vivo", "details": "given orally at 50 mg/kg/day, laser-induced CNV in mice", "from_the_text": "This laser-induced model of CNV is a highly reproducible model that mimics many features of CNV occurring in the wet form of age-related macular degeneration (AMD), the leading cause of blindness in the elderly."}, "[4]": {"system": "human Calu-6 lung cancer cells", "experiment": "Tumor xenograft model", "type": "in vivo, SCID mice", "details": "25 mg/kg/day; for inhibition of tumor volume: once daily for 17 days, Calu-6 subcutaneous in SCID mice", "experimental": "Female 6-week-old SCID mice were used for tumor studies. Approximately 10^6 human Calu-6 lung cancer cells growing in logarithmic phase were harvested and resuspended in media, and a single cell solution in a volume of […] was implanted subcutaneously at the right flank of each animal. 10 mice were used in the treated groups and 10 mice were used in the control groups. Systemic treatment by oral administration or iv injections with either […] of vehicle or active substance (25 mg/kg/day) was begun when tumors reached a size of 300 mm^3 and continued once daily for a total of 17 days. Visible tumors were present day 5-10 after implantation. Primary tumors were measured with digital calipers on the days indicated. Tumor volumes were calculated according to the formula: Length×width^2×0.52 as reported."}},
  "data": [
    {"smiles": "CNC(=O)c1ccc2ncc(C(=O)O)c(Nc3ccc(OC)cc3)c2c1", "note": "[Example 4, 4-[(4-Methoxyphenyl)amino]-6-(methylcarbamoyl)quinoline-3-carboxylic Acid]", "values": [
      {"measurement": "effect on RGD-induced conformational change (SHG signal)", "setting": "[1]", "result": "prevented RGD-induced conformational change"},
      {"measurement": "effect on RGD-induced conformational change (SHG signal)", "setting": "[2]", "result": "no effect"},
      {"measurement": "inhibition of CNV growth in eye compared with control", "setting": "[3]", "result": 42, "unit": "%"},
      {"measurement": "inhibition of angiogenesis", "setting": "[4]; both groups (oral and iv), Calu-6 xenograft", "result": "inhibits angiogenesis significantly"},
      {"measurement": "inhibition of tumor volume", "setting": "[4]; iv treatment", "result": 71, "unit": "%"},
      {"measurement": "inhibition of tumor volume", "setting": "[4]; oral treatment", "result": 52, "unit": "%"}
    ]}
  ]
}
